Measured values: ChEMBL document CHEMBL3784985, “Thiadiazole derivatives as New Class of β-glucuronidase inhibitors” (Bioorg Med Chem, 2016)

target: T1, Beta-glucuronidase (Bos taurus, UniProt A3KMY8); experiment: Inhibition of bovine beta-glucuronidase assessed as p-nitrophenol formation preincubated for 30 mins followed by addition of p-nitrophenyl-beta-D-glucuronide by spectrophotometric analysis
T1 sequence (A3KMY8 whole entry): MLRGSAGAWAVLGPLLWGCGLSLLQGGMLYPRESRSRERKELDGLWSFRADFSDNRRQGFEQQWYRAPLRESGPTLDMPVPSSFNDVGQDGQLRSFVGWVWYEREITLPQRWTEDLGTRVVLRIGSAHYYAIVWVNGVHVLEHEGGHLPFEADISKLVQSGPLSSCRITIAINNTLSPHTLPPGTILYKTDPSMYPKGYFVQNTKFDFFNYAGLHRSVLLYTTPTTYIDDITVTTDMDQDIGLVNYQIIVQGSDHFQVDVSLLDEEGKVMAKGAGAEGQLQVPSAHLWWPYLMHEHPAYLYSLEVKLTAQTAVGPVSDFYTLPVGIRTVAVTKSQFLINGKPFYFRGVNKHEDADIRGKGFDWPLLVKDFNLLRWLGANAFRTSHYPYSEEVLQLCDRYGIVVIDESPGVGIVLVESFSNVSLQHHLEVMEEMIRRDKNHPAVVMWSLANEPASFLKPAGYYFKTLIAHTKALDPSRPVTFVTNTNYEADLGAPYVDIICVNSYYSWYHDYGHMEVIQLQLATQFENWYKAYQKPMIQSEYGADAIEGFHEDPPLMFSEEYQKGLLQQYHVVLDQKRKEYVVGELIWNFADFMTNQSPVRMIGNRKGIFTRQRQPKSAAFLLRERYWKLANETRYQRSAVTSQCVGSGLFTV

In order of falling IC50:
1. COc1ccccc1-c1nnc(Nc2ccc(C)cc2)s1  58.1 µM
2. COc1cc(OC)cc(-c2nnc(Nc3ccc(C)cc3)s2)c1  50.3 µM
3. COc1ccccc1-c1nnc(Nc2cccc(Br)c2)s1  49.2 µM
4. Cc1ccc(Nc2nnc(-c3ccccc3)s2)cc1  48.4 µM
5. Brc1ccc(-c2nnc(Nc3ccccc3)s2)cc1  40.2 µM
6. COc1ccc(-c2nnc(Nc3ccc(C)cc3)s2)c(OC)c1  39.3 µM
7. Cc1ccc(-c2nnc(Nc3cccc(Br)c3)s2)c(C)c1  36.1 µM
8. Cc1ccc(Nc2nnc(-c3ccc(C)cc3C)s2)cc1  34.2 µM
9. CC(C)(C)c1ccc(-c2nnc(Nc3ccc(Br)cc3)s2)cc1  32.2 µM
10. COc1cccc(Nc2nnc(-c3ccc(Br)cc3)s2)c1  31.1 µM
11. COc1ccc(-c2nnc(Nc3ccc(Br)cc3)s2)c(OC)c1  29.7 µM
12. Cc1ccc(Nc2nnc(-c3ccc(Br)cc3)s2)cc1  28.6 µM
13. Cc1ccc(Nc2nnc(-c3ccc(C(C)(C)C)cc3)s2)cc1  26.3 µM
14. COc1ccc(Nc2nnc(-c3ccccc3Cl)s2)cc1  22.6 µM
15. COc1ccccc1-c1nnc(Nc2ccc(Cl)c(Cl)c2)s1  22.6 µM
16. COc1cc(OC)cc(-c2nnc(Nc3ccc(Cl)c(Cl)c3)s2)c1  19.2 µM
17. Brc1ccc(-c2nnc(Nc3cccc(Br)c3)s2)cc1  17.3 µM
18. Cc1ccc(Nc2nnc(-c3ccccc3Cl)s2)cc1  16.7 µM
19. Cc1ccc(-c2nnc(Nc3ccc(Cl)c(Cl)c3)s2)c(C)c1  15.6 µM
20. Clc1ccccc1-c1nnc(Nc2cccc(Br)c2)s1  8.96 µM
21. Clc1ccc(Nc2nnc(-c3ccc(Br)cc3)s2)cc1Cl  7.16 µM
22. Clc1ccc(Nc2nnc(-c3ccccc3)s2)cc1Cl  6.28 µM
